Assays:
Format in all cases: in vivo
Conditions in all cases: Preemergence, scale 0 to 100
[1] = system: field bindweed (Convolvulus arvensis); assay: Test E pre-/postemergence: field bindweed
From the text: (§1) Seeds of plant species selected from corn (Zea mays), soybean (Glycine max), velvetleaf (Abutilon theophrasti), lambsquarters (Chenopodium album), poinsettia, wild (wild poinsettia, Euphorbia heterophylla), pigweed, palmer (palmer pigweed, Amaranthus palmeri), waterhemp (common waterhemp, Amaranthus rudis), smartweed (ladysthumb smartweed, Polygonum persicaria), surinam grass (Brachiaria decumbens), crabgrass, large (large crabgrass, Digitaria sanguinalis), crabgrass, Brazil (Brazilian crabgrass, Digitaria horizontalis), panicum, fall (fall panicum, Panicum dichotomiflorum), foxtail, giant (giant foxtail, Setaria faberii), foxtail, green (green foxtail, Setaria viridis), goosegrass (Eleusine indica), johnsongrass (Sorghum halepense), ragweed (common ragweed, Ambrosia elation), barnyardgrass (Echinochloa crus-galli), sandbur (southern sandbur, Cenchrus echinatus), arrowleaf sida (Sida rhombifolia), ryegrass, Italian (Italian ryegrass, Lolium multiflorum), dayflower, (VA) (Virginia dayflower, Commelina virginica), field bindweed (Convolvulus arvensis), cocklebur (common cocklebur, Xanthium strumarium), morningglory (Ipomoea coccinea), nightshade (eastern black nightshade, Solanum ptycanthum), kochia (Kochia scoparia), nutsedge, yellow (yellow nutsedge, Cyperus esculentus) and beggarticks (hairy beggarticks, Bidens pilosa) were planted into a silt loam soil and treated preemergence with test chemicals formulated in a non-phytotoxic solvent mixture which included a surfactant. At the same time, plants selected from these crop and weed species were planted in pots containing a growing medium comprising spaghnum peat moss, vermiculite, wetting agent and starter nutrients and treated with postemergence applications of some of the test chemicals formulated in the same manner. Plants ranged in height from 2 to 18 cm for postemergence treatments (1- to 4-leaf stage).
(§2) Treated plants and controls were maintained in a greenhouse for 14 to 21 days, after which time all species were compared to controls and visually evaluated. Plant response ratings, summarized in Table E, are based on a scale of 0 to 100 where 0 is no effect and 100 is complete control. A dash (-) response means no test result.

[2] = system: morningglory (Ipomoea coccinea); assay: Test E pre-/postemergence: morningglory
From the text: as §1, §2

[3] = system: nutsedge, yellow (yellow nutsedge, Cyperus esculentus); assay: Test E pre-/postemergence: nutsedge, yellow
From the text: as §1, §2

[4] = system: smartweed (ladysthumb smartweed, Polygonum persicaria); assay: Test E pre-/postemergence: smartweed
How it was run: (§3)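 Preemergence: seeds sown in silt loam soil and treated with test chemicals in non-phytotoxic solvent with surfactant. Postemergence: plants at 2 to 18 cm (1- to 4-leaf stage) in peat/vermiculite medium were sprayed with the same formulations. After 14 to 21 days in greenhouse, injury was rated visually against controls, 0 (no effect) to 100 (complete control).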

[5] = system: sandbur (southern sandbur, Cenchrus echinatus); assay: Test E pre-/postemergence: sandbur
From the text: as §1, §2

[6] = system: barnyardgrass (Echinochloa crus-galli); assay: Test E pre-/postemergence: barnyardgrass
From the text: as §1, §2

[7] = system: goosegrass (Eleusine indica); assay: Test E pre-/postemergence: goosegrass
From the text: as §1, §2

soybean (Glycine max) = assay: Test E pre-/postemergence: soybean
How it was run: as §3

[8] = system: cocklebur (common cocklebur, Xanthium strumarium); assay: Test E pre-/postemergence: cocklebur
From the text: as §1, §2

[9] = system: poinsettia, wild (wild poinsettia, Euphorbia heterophylla); assay: Test E pre-/postemergence: poinsettia, wild
From the text: as §1, §2

[10] = system: johnsongrass (Sorghum halepense); assay: Test E pre-/postemergence: johnsongrass
How it was run: as §3

[11] = system: waterhemp (common waterhemp, Amaranthus rudis); assay: Test E pre-/postemergence: waterhemp
From the text: as §1, §2

corn (Zea mays) = assay: Test E pre-/postemergence: corn
How it was run: as §3

[12] = system: panicum, fall (fall panicum, Panicum dichotomiflorum); assay: Test E pre-/postemergence: panicum, fall
From the text: as §1, §2

[13] = system: beggarticks (hairy beggarticks, Bidens pilosa); assay: Test E pre-/postemergence: beggarticks
How it was run: as §3

[14] = system: surinam grass (Brachiaria decumbens); assay: Test E pre-/postemergence: surinam grass
How it was run: as §3

[15] = system: nightshade (eastern black nightshade, Solanum ptycanthum); assay: Test E pre-/postemergence: nightshade
How it was run: as §3

COc1nn(-c2ccc(C(F)(F)F)cc2)nc1Cc1ccnc(C(F)(F)F)c1 [Compound 15, 4-[[5-methoxy-2-[4-(trifluoromethyl)phenyl]-2H-1,2,3-triazol-4-yl]methyl]-2-(trifluoromethyl)pyridine]
Plant response rating: Field Bindweed ([1]; 16 g ai/ha): 5 | Plant response rating: Field Bindweed ([1]; 31 g ai/ha): 5 | Plant response rating: Field Bindweed ([1]; 62 g ai/ha): 40 | Plant response rating: Field Bindweed ([1]; 125 g ai/ha): 60 | Plant response rating: Field Bindweed ([1]; 250 g ai/ha): 95 | Plant response rating: Morningglory ([2]; 16 g ai/ha): 10 | Plant response rating: Morningglory ([2]; 31 g ai/ha): 50 | Plant response rating: Morningglory ([2]; 62 g ai/ha): 50 | Plant response rating: Morningglory ([2]; 125 g ai/ha): 65 | Plant response rating: Morningglory ([2]; 250 g ai/ha): 65 | Plant response rating: Nutsedge, Yellow ([3]; 16 g ai/ha): 0 | Plant response rating: Nutsedge, Yellow ([3]; 31 g ai/ha): 0 | Plant response rating: Nutsedge, Yellow ([3]; 62 g ai/ha): 0 | Plant response rating: Nutsedge, Yellow ([3]; 125 g ai/ha): 0 | Plant response rating: Nutsedge, Yellow ([3]; 250 g ai/ha): 0 | Plant response rating: Smartweed ([4]; 31 g ai/ha): 60 | Plant response rating: Smartweed ([4]; 62 g ai/ha): 98 | Plant response rating: Smartweed ([4]; 125 g ai/ha): 98 | Plant response rating: Smartweed ([4]; 250 g ai/ha): 100 | Plant response rating: Sandbur ([5]; 16 g ai/ha): 5 | Plant response rating: Sandbur ([5]; 31 g ai/ha): 25 | Plant response rating: Sandbur ([5]; 62 g ai/ha): 50 | Plant response rating: Sandbur ([5]; 125 g ai/ha): 90 | Plant response rating: Sandbur ([5]; 250 g ai/ha): 100 | Plant response rating: Barnyardgrass ([6]; 16 g ai/ha): 10 | Plant response rating: Barnyardgrass ([6]; 31 g ai/ha): 50 | Plant response rating: Barnyardgrass ([6]; 62 g ai/ha): 85 | Plant response rating: Barnyardgrass ([6]; 125 g ai/ha): 98 | Plant response rating: Barnyardgrass ([6]; 250 g ai/ha): 100 | Plant response rating: Goosegrass ([7]; 16 g ai/ha): 75 | Plant response rating: Goosegrass ([7]; 31 g ai/ha): 100 | Plant response rating: Goosegrass ([7]; 62 g ai/ha): 100 | Plant response rating: Goosegrass ([7]; 125 g ai/ha): 100 | Plant response rating: Goosegrass ([7]; 250 g ai/ha): 100 | Plant response rating: Soybean (soybean (Glycine max); 16 g ai/ha): 0 | Plant response rating: Soybean (soybean (Glycine max); 31 g ai/ha): 0 | Plant response rating: Soybean (soybean (Glycine max); 62 g ai/ha): 20 | Plant response rating: Soybean (soybean (Glycine max); 125 g ai/ha): 35 | Plant response rating: Soybean (soybean (Glycine max); 250 g ai/ha): 35 | Plant response rating: Cocklebur ([8]; 31 g ai/ha): 0 | Plant response rating: Cocklebur ([8]; 62 g ai/ha): 0 | Plant response rating: Cocklebur ([8]; 250 g ai/ha): 20 | Plant response rating: Poinsettia, Wild ([9]; 16 g ai/ha): 30 | Plant response rating: Poinsettia, Wild ([9]; 31 g ai/ha): 30 | Plant response rating: Poinsettia, Wild ([9]; 62 g ai/ha): 65 | Plant response rating: Poinsettia, Wild ([9]; 125 g ai/ha): 75 | Plant response rating: Poinsettia, Wild ([9]; 250 g ai/ha): 80 | Plant response rating: Johnsongrass ([10]; 16 g ai/ha): 10 | Plant response rating: Johnsongrass ([10]; 31 g ai/ha): 65 | Plant response rating: Johnsongrass ([10]; 62 g ai/ha): 65 | Plant response rating: Johnsongrass ([10]; 125 g ai/ha): 98 | Plant response rating: Johnsongrass ([10]; 250 g ai/ha): 100 | Plant response rating: Waterhemp ([11]; 16 g ai/ha): 98 | Plant response rating: Waterhemp ([11]; 31 g ai/ha): 100 | Plant response rating: Waterhemp ([11]; 62 g ai/ha): 100 | Plant response rating: Waterhemp ([11]; 125 g ai/ha): 100 | Plant response rating: Waterhemp ([11]; 250 g ai/ha): 100 | Plant response rating: Corn (corn (Zea mays); 16 g ai/ha): 0 | Plant response rating: Corn (corn (Zea mays); 31 g ai/ha): 0 | Plant response rating: Corn (corn (Zea mays); 62 g ai/ha): 0 | Plant response rating: Corn (corn (Zea mays); 125 g ai/ha): 5 | Plant response rating: Corn (corn (Zea mays); 250 g ai/ha): 10 | Plant response rating: Panicum, Fall ([12]; 16 g ai/ha): 98 | Plant response rating: Panicum, Fall ([12]; 31 g ai/ha): 98 | Plant response rating: Panicum, Fall ([12]; 62 g ai/ha): 100 | Plant response rating: Panicum, Fall ([12]; 125 g ai/ha): 100 | Plant response rating: Panicum, Fall ([12]; 250 g ai/ha): 100 | Plant response rating: Beggarticks ([13]; 16 g ai/ha): 5 | Plant response rating: Beggarticks ([13]; 31 g ai/ha): 5 | Plant response rating: Beggarticks ([13]; 62 g ai/ha): 50 | Plant response rating: Beggarticks ([13]; 125 g ai/ha): 80 | Plant response rating: Beggarticks ([13]; 250 g ai/ha): 100 | Plant response rating: Surinam Grass ([14]; 16 g ai/ha): 5 | Plant response rating: Surinam Grass ([14]; 31 g ai/ha): 50 | Plant response rating: Surinam Grass ([14]; 62 g ai/ha): 75 | Plant response rating: Surinam Grass ([14]; 125 g ai/ha): 98 | Plant response rating: Surinam Grass ([14]; 250 g ai/ha): 100 | Plant response rating: Nightshade ([15]; 16 g ai/ha): 5 | Plant response rating: Nightshade ([15]; 31 g ai/ha): 35 | Plant response rating: Nightshade ([15]; 62 g ai/ha): 98 | Plant response rating: Nightshade ([15]; 125 g ai/ha): 98 | Plant response rating: Nightshade ([15]; 250 g ai/ha): 100

— patent US9302999B2, “Substituted triazoles as herbicides” (E. I. DU PONT DE NEMOURS AND COMPANY, priority 2012, dated 2016)
